ChEMBL document CHEMBL1129855, “Molecular connectivity to find -blockers with low toxicity” (Bioorg Med Chem Lett, 1997)

Assays:
Settings in all cases: mouse, in vivo
[1] = Compound was tested for its toxicity after intravenous administration to mice in experiment 1
[2] = Compound was tested for its toxicity after intravenous administration to mice in experiment 2
[3] = The activity was measured in mice after oral administration of the compound; type: ADME
[4] = Compound was tested for its toxicity after oral administration in mice
[5] = Compound was tested for its toxicity after intravenous administration in mice
[6] = Compound was tested for its toxicity after oral administration to mice in experiment 1
[7] = Compound was tested for its toxicity after oral administration to mice in experiment 2
[8] = Compound was tested for its toxicity after intravenous administration to mice

Molecule `Cc1cc2c(OCC(CNC(C)(C)C)OC(=O)c3ccccc3)cccc2[nH]1` (stereo unspecified) [BOPINDOLOL] has an LD50 [1] of 17 mg/kg and an LD50 [2] of 15.9 mg/kg.
`CC1=C(/C=C/C(C)=C/C=C/C(C)=C/C=C/C=C(C)/C=C/C=C(C)/C=C/C2=C(C)CCCC2(C)C)C(C)(C)CCC1` [BETA CAROTENE] showed an LD50 [3] of 6750 mg/kg and an LD50 [4] of 26 mg/kg.
Work on `CCCCCC(O)C1C(=O)OC(C)C(O)/C=C/C=C/C=C/C=C/C=C(\C)C(O)CC(O)CC(O)CC(O)CC(O)CC(O)CC1O` (stereo unspecified) yielded an LD50 [5] of 5 mg/kg and an LD50 [4] of 18 mg/kg.
Molecule `CC(C)NCC(O)COc1ccc(CCOCC2CC2)cc1` (stereo unspecified) [BETAXOLOL] has an LD50 [1] of 37 mg/kg, an LD50 [2] of 38 mg/kg and an LD50 [6] of 944 mg/kg. The LD50 [7] was 625 mg/kg.
With `CC(C)(C)NCC(O)COc1cccc2c1CCCC2=O` (single isomer, unassigned) [LEVOBUNOLOL] the LD50 [1] was 25 mg/kg, the LD50 [2] was 37.7 mg/kg and the LD50 [6] was 700 mg/kg. The LD50 [7] was 798 mg/kg.
Molecule `CC(C)(Sc1cc(C(C)(C)C)c(O)c(C(C)(C)C)c1)Sc1cc(C(C)(C)C)c(O)c(C(C)(C)C)c1` [PROBUCOL] has an LD50 [8] of 25 mg/kg and an LD50 [6] greater than 5000 mg/kg.
For `N/C(CC(O)COc1cccc2ccccc12)=N/O` (stereo unspecified) [NADOXOLOL], the LD50 [1] was 180 mg/kg, the LD50 [2] was 119 mg/kg and the LD50 [6] was 1000 mg/kg. The LD50 [7] was 710 mg/kg.
`CC(C)(C)NC[C@H](O)COc1nsnc1N1CCOCC1` [TIMOLOL] showed an LD50 [6] of 1190 mg/kg and an LD50 [7] of 1460 mg/kg.
With `CCN(CC)C(=O)Nc1ccc(OCC(O)CNC(C)(C)C)c(C(C)=O)c1` (stereo unspecified) [CELIPROLOL] the LD50 [1] was 56.2 mg/kg, the LD50 [2] was 42.8 mg/kg and the LD50 [6] was 1830 mg/kg. For the same molecule, the LD50 [7] was 1770 mg/kg.
In the case of `O=C(O)C1CCc2cc(C3CCCCC3)c(Cl)cc21` (stereo unspecified), the LD50 [5] is reported as 34 mg/kg, the LD50 [6] is reported as 41 mg/kg and the LD50 [7] is reported as 252 mg/kg.
For `CC(=O)Oc1c(C)cc(OCC(O)CNC(C)C)c(C)c1C` (stereo unspecified) [METIPRANOLOL], the LD50 [1] was 31 mg/kg and the LD50 [2] was 38.8 mg/kg.
For `CC(CCc1ccccc1)NCC(O)c1ccc(O)c(C(N)=O)c1` (stereo unspecified) [LABETALOL], the LD50 [1] was 47 mg/kg, the LD50 [2] was 51.1 mg/kg and the LD50 [6] was 1450 mg/kg. For the same molecule, the LD50 [7] was 1370 mg/kg.
For `CC(C)(C)NCC(O)COc1cccc2c1CCC(=O)N2` (stereo unspecified) [CARTEOLOL], the LD50 [2] was 39.4 mg/kg, the LD50 [6] was 810 mg/kg and the LD50 [7] was 656 mg/kg.
Work on `CC(C)NCC(O)COc1cccc2c1C=CC2` (stereo unspecified) [INDENOLOL] yielded an LD50 [1] of 26 mg/kg and an LD50 [2] of 32.4 mg/kg.
Work on `COCCc1ccc(OCC(O)CNC(C)C)cc1` (stereo unspecified) [METOPROLOL] yielded an LD50 [1] of 118 mg/kg, an LD50 [2] of 292 mg/kg and an LD50 [6] of 2090 mg/kg. It also gave an LD50 [7] of 3060 mg/kg.
Molecule `C=CCc1ccccc1OCC(O)CNC(C)C` (stereo unspecified) [ALPRENOLOL] has an LD50 [6] of 278 mg/kg and an LD50 [7] of 415 mg/kg.
For `CCC(C)NCC(O)c1ccc2c(c1)CCCC2` (stereo unspecified) [BUTIDRINE], the LD50 [1] was 20.2 mg/kg, the LD50 [2] was 24.6 mg/kg and the LD50 [6] was 235 mg/kg. The LD50 [7] was 212 mg/kg.
`CC(C)(C)NCC(O)CSc1nc(-c2ccc(C(N)=O)s2)cs1` (stereo unspecified) [AROTINOLOL] showed an LD50 [2] of 57.8 mg/kg.
In the case of `CC(C)(C)NCC(O)COc1ccc(NC(=O)NC2CCCCC2)cc1` (stereo unspecified) [TALINOLOL], the LD50 [1] is reported as 25 mg/kg, the LD50 [2] is reported as 25.8 mg/kg and the LD50 [6] is reported as 593 mg/kg. It also gave an LD50 [7] of 1050 mg/kg.
Work on `CC(C)(C)NCC(O)COc1cccc2c1SCCC2` (stereo unspecified) [TERTATOLOL] yielded an LD50 [1] of 37 mg/kg and an LD50 [2] of 34.1 mg/kg.
With `CC(=O)c1cc2cccc(OCC(O)CNC(C)C)c2o1` (stereo unspecified) [BEFUNOLOL] the LD50 [1] was 102 mg/kg and the LD50 [2] was 75.1 mg/kg.
`CC(C)NCC(O)c1ccc2ccccc2c1` (stereo unspecified) [PRONETALOL] gave an LD50 [1] of 46 mg/kg, an LD50 [2] of 38 mg/kg and an LD50 [6] of 512 mg/kg. The LD50 [7] was 486 mg/kg.
For `CC(C)(C)NCC(O)COc1ccccc1OCC1CCCO1` (stereo unspecified) [BUFETOLOL], the LD50 [6] was 409 mg/kg and the LD50 [7] was 238 mg/kg.
In the case of `CC(C)NCC(O)c1ccc(NS(C)(=O)=O)cc1` (stereo unspecified) [SOTALOL], the LD50 [6] is reported as 2600 mg/kg and the LD50 [7] is reported as 2630 mg/kg.
For `CC(C)(C)NCC(O)COc1ccccc1C#N` (stereo unspecified) [BUNITROLOL], the LD50 [6] was 1350 mg/kg and the LD50 [7] was 998 mg/kg.
Molecule `Cc1ccc(OCC(O)CNC(C)(C)C)c2oc(=O)ccc12` (stereo unspecified) [BUCUMOLOL] has an LD50 [1] of 33.1 mg/kg, an LD50 [2] of 46.8 mg/kg and an LD50 [6] of 676 mg/kg. The LD50 [7] was 828 mg/kg.
Work on `CC(C)(C)NCC(O)COc1cccc2c1C[C@H](O)[C@H](O)C2` (stereo partly specified) [NADOLOL] yielded an LD50 [6] of 4500 mg/kg and an LD50 [7] of 2710 mg/kg.
Work on `CCc1cccc2cc(C(O)CNC(C)(C)C)oc12` (stereo unspecified) [BUFURALOL] yielded an LD50 [1] of 29.7 mg/kg, an LD50 [2] of 25.9 mg/kg and an LD50 [6] of 117 mg/kg. The LD50 [7] was 273 mg/kg.
Molecule `CCCC(=O)Nc1ccc(OCC(O)CNC(C)C)c(C(C)=O)c1` (stereo unspecified) [ACEBUTOLOL] has an LD50 [1] of 76 mg/kg and an LD50 [2] of 82.2 mg/kg.
